Results from publication PMC10175918 (Communications Biology, 2023).
Read-outs that look alike come from different tables or passages of the source.

Tests used:
Test in all cases: TGFα-shedding assay-based GPCR screening with chimeric Gα subunit proteins
Assay type in all cases: cell-based
[1] = target: 348 GPCRs (Homo sapiens, UniProt P21453); conditions: 10µM, Favipiravir 100μM
[2] = target: T1, 348 GPCRs (Homo sapiens, UniProt P21731); conditions: 10µM, Favipiravir 100μM
T1 construct: expressed in transfected cells; host or cells: HEK293A
T1 sequence (P21731 1-343): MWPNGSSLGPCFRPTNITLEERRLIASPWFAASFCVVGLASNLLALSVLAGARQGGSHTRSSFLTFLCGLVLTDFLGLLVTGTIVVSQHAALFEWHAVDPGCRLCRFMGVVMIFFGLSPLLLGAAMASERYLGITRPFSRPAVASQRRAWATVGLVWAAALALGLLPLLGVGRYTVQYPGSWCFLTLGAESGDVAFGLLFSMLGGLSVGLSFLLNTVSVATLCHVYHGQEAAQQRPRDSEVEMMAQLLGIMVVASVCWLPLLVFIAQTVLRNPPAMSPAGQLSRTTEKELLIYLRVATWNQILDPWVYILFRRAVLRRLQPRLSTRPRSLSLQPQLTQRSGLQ

[3] = target: 348 GPCRs (Homo sapiens, UniProt P30989); conditions: 10µM, Favipiravir 100μM
Chain of 348 GPCRs (Homo sapiens, UniProt P30989) (P30989 whole entry): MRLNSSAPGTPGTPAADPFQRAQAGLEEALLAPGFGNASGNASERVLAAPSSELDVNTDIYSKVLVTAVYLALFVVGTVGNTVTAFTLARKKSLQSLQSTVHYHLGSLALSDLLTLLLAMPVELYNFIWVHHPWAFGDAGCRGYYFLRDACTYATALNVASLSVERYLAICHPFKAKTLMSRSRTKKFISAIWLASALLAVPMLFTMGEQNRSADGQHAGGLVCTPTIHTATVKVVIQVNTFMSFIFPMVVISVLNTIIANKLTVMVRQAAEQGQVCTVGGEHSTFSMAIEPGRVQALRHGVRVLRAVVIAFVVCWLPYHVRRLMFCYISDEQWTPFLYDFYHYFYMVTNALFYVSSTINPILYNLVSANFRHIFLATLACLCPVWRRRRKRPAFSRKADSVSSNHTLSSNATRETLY

[4] = target: T2, 348 GPCRs (Homo sapiens, UniProt P32241)
T2 construct: expressed in transfected cells; host or cells: HEK293A
T2 sequence (P32241 31-457): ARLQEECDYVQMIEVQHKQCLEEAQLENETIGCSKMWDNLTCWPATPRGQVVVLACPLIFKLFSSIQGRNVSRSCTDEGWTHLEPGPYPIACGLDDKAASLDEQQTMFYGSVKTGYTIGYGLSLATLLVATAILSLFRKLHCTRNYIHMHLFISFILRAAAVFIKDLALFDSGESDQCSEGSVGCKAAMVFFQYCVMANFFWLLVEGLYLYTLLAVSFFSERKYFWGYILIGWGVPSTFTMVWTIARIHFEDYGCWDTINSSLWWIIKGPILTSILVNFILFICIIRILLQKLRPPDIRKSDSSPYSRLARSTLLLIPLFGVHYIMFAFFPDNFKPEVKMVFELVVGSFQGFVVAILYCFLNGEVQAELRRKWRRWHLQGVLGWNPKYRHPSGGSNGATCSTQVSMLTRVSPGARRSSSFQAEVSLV

[5] = target: 348 GPCRs (Homo sapiens, UniProt P35372); conditions: 10µM, Favipiravir 100μM
Chain of 348 GPCRs (Homo sapiens, UniProt P35372) (P35372 whole entry): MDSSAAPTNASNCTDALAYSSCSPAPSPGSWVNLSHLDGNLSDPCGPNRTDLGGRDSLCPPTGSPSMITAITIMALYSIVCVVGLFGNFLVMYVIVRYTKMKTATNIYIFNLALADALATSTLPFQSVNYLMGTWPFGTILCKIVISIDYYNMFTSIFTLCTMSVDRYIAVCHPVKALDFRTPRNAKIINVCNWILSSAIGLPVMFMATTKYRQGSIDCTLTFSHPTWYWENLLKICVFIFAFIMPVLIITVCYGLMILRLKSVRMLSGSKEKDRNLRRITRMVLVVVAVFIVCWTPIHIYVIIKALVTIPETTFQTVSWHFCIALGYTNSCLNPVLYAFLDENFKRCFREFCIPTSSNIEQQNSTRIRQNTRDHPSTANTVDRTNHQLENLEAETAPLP

[6] = target: 348 GPCRs (Homo sapiens, UniProt P41595); conditions: 10µM, Favipiravir 100μM
Chain of 348 GPCRs (Homo sapiens, UniProt P41595) (P41595 whole entry): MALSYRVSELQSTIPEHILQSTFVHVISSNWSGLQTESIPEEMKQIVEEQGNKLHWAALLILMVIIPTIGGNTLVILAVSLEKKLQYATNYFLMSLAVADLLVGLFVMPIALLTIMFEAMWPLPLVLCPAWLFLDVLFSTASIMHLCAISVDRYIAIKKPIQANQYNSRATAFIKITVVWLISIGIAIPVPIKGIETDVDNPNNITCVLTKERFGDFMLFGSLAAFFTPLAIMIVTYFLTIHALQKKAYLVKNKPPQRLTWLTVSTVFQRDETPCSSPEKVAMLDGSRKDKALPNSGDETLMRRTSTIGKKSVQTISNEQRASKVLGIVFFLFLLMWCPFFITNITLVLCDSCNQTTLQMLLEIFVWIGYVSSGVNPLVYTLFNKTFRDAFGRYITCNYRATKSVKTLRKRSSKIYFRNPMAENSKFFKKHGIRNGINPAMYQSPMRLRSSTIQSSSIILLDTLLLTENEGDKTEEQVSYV

[7] = target: 348 GPCRs (Homo sapiens, UniProt P46093)
Chain of 348 GPCRs (Homo sapiens, UniProt P46093) (P46093 whole entry): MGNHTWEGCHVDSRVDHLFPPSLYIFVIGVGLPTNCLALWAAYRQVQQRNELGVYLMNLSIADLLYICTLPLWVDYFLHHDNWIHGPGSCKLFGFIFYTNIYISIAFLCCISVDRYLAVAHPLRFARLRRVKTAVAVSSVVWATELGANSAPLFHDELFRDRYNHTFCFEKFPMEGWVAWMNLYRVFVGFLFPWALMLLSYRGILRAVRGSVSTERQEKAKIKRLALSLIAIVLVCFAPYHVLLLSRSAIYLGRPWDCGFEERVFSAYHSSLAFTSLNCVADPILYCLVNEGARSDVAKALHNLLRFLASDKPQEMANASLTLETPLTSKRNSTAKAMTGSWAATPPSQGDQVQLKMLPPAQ

[8] = target: T3, 348 GPCRs (Homo sapiens, UniProt Q96PE1)
T3 sequence (Q96PE1 34-1338): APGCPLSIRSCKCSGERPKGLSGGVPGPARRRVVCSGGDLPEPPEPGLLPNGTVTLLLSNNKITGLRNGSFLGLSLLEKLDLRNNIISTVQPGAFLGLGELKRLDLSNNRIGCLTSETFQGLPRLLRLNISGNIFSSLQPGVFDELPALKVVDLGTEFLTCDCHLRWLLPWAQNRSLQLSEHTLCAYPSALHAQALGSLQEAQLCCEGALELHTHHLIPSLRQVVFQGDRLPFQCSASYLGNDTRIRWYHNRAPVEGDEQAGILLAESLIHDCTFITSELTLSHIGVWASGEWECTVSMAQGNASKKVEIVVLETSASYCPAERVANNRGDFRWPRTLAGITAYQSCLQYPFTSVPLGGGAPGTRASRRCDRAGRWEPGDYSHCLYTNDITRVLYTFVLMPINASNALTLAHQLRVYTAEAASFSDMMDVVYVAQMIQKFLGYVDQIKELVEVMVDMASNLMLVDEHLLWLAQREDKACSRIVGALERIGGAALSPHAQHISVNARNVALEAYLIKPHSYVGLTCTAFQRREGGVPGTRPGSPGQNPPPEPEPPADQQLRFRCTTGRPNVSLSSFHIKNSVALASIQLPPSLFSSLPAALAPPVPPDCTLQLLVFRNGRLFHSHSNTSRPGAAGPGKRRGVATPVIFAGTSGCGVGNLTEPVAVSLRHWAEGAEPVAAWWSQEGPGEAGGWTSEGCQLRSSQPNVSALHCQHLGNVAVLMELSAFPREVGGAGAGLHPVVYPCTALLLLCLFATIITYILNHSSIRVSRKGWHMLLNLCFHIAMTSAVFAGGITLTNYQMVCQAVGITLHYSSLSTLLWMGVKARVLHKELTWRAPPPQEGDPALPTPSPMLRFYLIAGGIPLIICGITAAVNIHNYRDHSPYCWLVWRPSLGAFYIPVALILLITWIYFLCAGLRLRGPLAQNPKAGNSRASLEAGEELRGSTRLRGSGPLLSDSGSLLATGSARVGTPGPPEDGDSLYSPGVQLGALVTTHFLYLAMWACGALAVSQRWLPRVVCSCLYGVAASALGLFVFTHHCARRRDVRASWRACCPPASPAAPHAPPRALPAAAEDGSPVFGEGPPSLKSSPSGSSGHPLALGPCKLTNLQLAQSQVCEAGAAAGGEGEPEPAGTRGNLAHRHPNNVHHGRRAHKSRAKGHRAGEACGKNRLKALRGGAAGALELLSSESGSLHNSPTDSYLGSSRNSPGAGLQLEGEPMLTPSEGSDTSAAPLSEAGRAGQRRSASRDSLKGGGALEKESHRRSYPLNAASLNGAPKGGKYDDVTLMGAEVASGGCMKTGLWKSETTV

[9] = target: T4, 348 GPCRs (Homo sapiens, UniProt Q99679); conditions: 10µM, Favipiravir 100μM
T4 construct: expressed in transfected cells; host or cells: HEK293A
T4 sequence (Q99679 whole entry): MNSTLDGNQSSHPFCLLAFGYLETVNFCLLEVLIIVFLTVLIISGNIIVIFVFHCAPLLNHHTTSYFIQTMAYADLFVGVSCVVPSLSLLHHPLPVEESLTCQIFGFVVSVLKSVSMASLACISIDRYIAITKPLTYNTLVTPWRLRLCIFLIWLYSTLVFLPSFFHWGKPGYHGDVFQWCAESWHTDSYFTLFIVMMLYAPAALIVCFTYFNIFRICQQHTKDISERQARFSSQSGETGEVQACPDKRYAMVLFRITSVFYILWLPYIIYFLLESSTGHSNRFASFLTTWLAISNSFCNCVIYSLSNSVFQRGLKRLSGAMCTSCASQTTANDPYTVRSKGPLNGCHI

[10] = S1PR1 (sphingosine-1-phosphate receptor 1), read-out: % GPCR activation compared to TPA
[11] = TBXA2R (thromboxane A2 receptor), read-out: % GPCR activation compared to TPA
[12] = NTSR1(CO) (neurotensin receptor 1), read-out: % GPCR activation compared to TPA
[13] = GPCR VIPR1 (vasoactive intestinal peptide receptor 1), read-out: % GPCR activation compared to TPA
[14] = OPRM1, read-out: % GPCR activation compared to TPA, OPRM1 (opioid receptor, mu 1 (MOR1))
[15] = HTR2B (5-hydroxytryptamine (serotonin) receptor 2B), read-out: % GPCR activation compared to TPA
[16] = GPCR GPR4 (G Protein-Coupled Receptor 4), read-out: % GPCR activation compared to TPA
[17] = GPCR GPR124 (Adhesion G Protein-Coupled Receptor A2 (ADGRA2)), read-out: % GPCR activation compared to TPA
[18] = GPR21 (G Protein-Coupled Receptor 21), read-out: % GPCR activation compared to TPA
[19] = read-out: % GPCR activation compared to TPA, S1PR1 (sphingosine-1-phosphate receptor 1)
[20] = read-out: % GPCR activation compared to TPA, TBXA2R (thromboxane A2 receptor)
[21] = read-out: % GPCR activation compared to TPA, NTSR1(CO) (neurotensin receptor 1)
[22] = read-out: % GPCR activation compared to TPA, GPCR VIPR1 (vasoactive intestinal peptide receptor 1)
[23] = read-out: % GPCR activation compared to TPA, HTR2B (5-hydroxytryptamine (serotonin) receptor 2B)
[24] = read-out: % GPCR activation compared to TPA, GPCR GPR4 (G Protein-Coupled Receptor 4)
[25] = read-out: % GPCR activation compared to TPA, GPCR GPR124 (Adhesion G Protein-Coupled Receptor A2 (ADGRA2))
[26] = read-out: % GPCR activation compared to TPA, GPR21 (G Protein-Coupled Receptor 21)

Chain of 348 GPCRs (Homo sapiens, UniProt P21453) (P21453 whole entry): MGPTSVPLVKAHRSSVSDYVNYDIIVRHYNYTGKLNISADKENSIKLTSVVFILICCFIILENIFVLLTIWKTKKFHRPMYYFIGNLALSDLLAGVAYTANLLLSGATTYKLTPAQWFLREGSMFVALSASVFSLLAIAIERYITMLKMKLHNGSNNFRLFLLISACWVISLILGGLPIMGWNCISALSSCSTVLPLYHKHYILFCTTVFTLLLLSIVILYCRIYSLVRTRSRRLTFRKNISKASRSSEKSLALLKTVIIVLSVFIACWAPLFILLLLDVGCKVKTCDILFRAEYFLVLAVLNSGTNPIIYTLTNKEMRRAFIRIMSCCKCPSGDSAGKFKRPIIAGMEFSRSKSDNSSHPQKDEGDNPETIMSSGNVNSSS

Compound | activation at 10 µM [1, 10] [%] | activation at 10 µM [2, 11] [%] | activation at 100 µM [3, 12] [%] | activation at 10 µM [4, 13] [%] | activation at 10 µM [5, 14] [%] | activation at 100 µM [6, 15] [%] | activation at 10 µM [7, 16] [%] | activation at 10 µM [8, 17] [%] | activation at 100 µM [9, 18] [%] | activation at 10 µM [1, 19] [%] | activation at 10 µM [2, 20] [%] | activation at 100 µM [3, 21] [%] | activation at 10 µM [4, 22] [%] | activation at 100 µM [6, 23] [%] | activation at 10 µM [7, 24] [%] | activation at 10 µM [8, 25] [%] | activation at 100 µM [9, 26] [%] | further results
N#C[C@@]1(c2ccc3c(N)ncnn23)O[C@H](CO)[C@@H](O)[C@H]1O [GS441524] | -1.43 | -0.528 | -0.341 | -2.1 | -2.75 | 0.0796 | -0.661 | 0.29 | 0.0472 |  |  |  |  |  |  |  |  | 
CC(C)OC(=O)[C@H](C)N[P@](=O)(OC[C@H]1O[C@@H](n2ccc(=O)[nH]c2=O)[C@](C)(F)[C@@H]1O)Oc1ccccc1 [sofosbuvir] |  |  |  |  | -0.878 |  |  |  |  | 0.0873 | 0.249 | -8.04 | 0.0833 | -0.398 | 1.94 | 1.09 | 0.161 | 
CCC(CC)COC(=O)[C@H](C)N[P@](=O)(OC[C@H]1O[C@@](C#N)(c2ccc3c(N)ncnn23)[C@H](O)[C@@H]1O)Oc1ccccc1 [remdesivir] |  |  |  |  | -2.36 |  |  |  |  | -1.92 | -0.881 | -1.56 | -1.85 | -4.14 | -1.37 | -0.926 | -0.776 | 
CC(C)C(=O)OC[C@H]1O[C@@H](n2ccc(NO)nc2=O)[C@H](O)[C@@H]1O [molnupiravir] | -2.19 | -1.16 | -6.1 | -0.522 | -3.97 | -1.16 | -3.97 | -0.928 | 0.1 |  |  |  |  |  |  |  |  | 
NC(=O)c1nc(F)cnc1O [favipiravir, 6-fluoro-3-hydroxy-2-pyrazinecarboxamide] | -0.836 | -0.974 | -1.75 |  |  | 0.187 |  |  | -0.0313 |  |  |  |  |  |  |  |  | activation at 100 µM ([4]; GPCR VIPR1 (vasoactive intestinal peptide receptor 1), 100μM, read-out: % GPCR activation compared to TPA): -0.983%; activation at 10 µM ([5]; OPRM1, OPRM1 (opioid receptor, mu 1 (MOR1)), read-out: % GPCR activation compared to TPA): -1.89%; activation at 100 µM ([7]; GPCR GPR4 (G Protein-Coupled Receptor 4), 100μM, read-out: % GPCR activation compared to TPA): -3.16%; activation at 100 µM ([8]; GPCR GPR124 (Adhesion G Protein-Coupled Receptor A2 (ADGRA2)), 100μM, read-out: % GPCR activation compared to TPA): -1.17%
